Reference: PubChem BioAssay AID248 (DTP/NCI, 2004)
Toxic doses and inconclusive results are not listed. No stated cut-off is given here; in the data, active means T/C of 150% or more; inactive means T/C below 125%.

Test system: L1210 leukemia ip in BDF1 mice, survival T/C
Assay: NCI In Vivo Anticancer Drug Screen. Data for tumor model L1210 Leukemia (intraperitoneal) in B6D2F1 (BDF1) mice
Details: endpoint: mean survival time, higher = longer survival
In short: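 Mice bearing the transplanted tumor received compound or vehicle. Survival of the treated group was divided by that of the vehicle-treated control group to give the ratio.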

[1] = dose: 100.0 mg/kg/injection, schedule: Q01DX009 (ip), vehicle: Klucel (hydroxypropylcellulose) (HPC)
[2] = dose: 100.0 mg/kg/injection, schedule: Q04DX003 (ip), vehicle: saline
[3] = dose: 200.0 mg/kg/injection, schedule: Q01DX009 (ip), vehicle: Klucel (hydroxypropylcellulose) (HPC)
[4] = dose: 200.0 mg/kg/injection, schedule: Q04DX003 (ip), vehicle: saline
[5] = dose: 100.0 mg/kg/injection, schedule: Q01DX001 (ip), vehicle: saline
[6] = dose: 200.0 mg/kg/injection, schedule: Q01DX001 (ip), vehicle: saline
[7] = dose: 400.0 mg/kg/injection, schedule: Q01DX001 (ip), vehicle: saline
[8] = dose: 50.0 mg/kg/injection, schedule: Q01DX009 (ip), vehicle: saline
[9] = dose: 100.0 mg/kg/injection, schedule: Q01DX009 (ip), vehicle: saline
[10] = dose: 200.0 mg/kg/injection, schedule: Q01DX009 (ip), vehicle: saline
[11] = dose: 100.0 mg/kg/injection, schedule: Q01DX001 (ip), vehicle: Klucel (hydroxypropylcellulose) (HPC)
[12] = dose: 100.0 mg/kg/injection, schedule: Q04DX003 (ip), vehicle: Klucel (hydroxypropylcellulose) (HPC)
[13] = dose: 200.0 mg/kg/injection, schedule: Q01DX001 (ip), vehicle: Klucel (hydroxypropylcellulose) (HPC)
[14] = dose: 200.0 mg/kg/injection, schedule: Q04DX003 (ip), vehicle: Klucel (hydroxypropylcellulose) (HPC)
[15] = dose: 100.0 mg/kg/injection, schedule: Q04DX003 (ip), vehicle: saline with Tween-80
[16] = dose: 200.0 mg/kg/injection, schedule: Q04DX003 (ip), vehicle: saline with Tween-80
[17] = dose: 400.0 mg/kg/injection, schedule: Q04DX003 (ip), vehicle: saline with Tween-80
[18] = dose: 100.0 mg/kg/injection, schedule: Q01DX009 (ip), vehicle: saline with Tween-80
[19] = dose: 200.0 mg/kg/injection, schedule: Q01DX009 (ip), vehicle: saline with Tween-80
[20] = dose: 400.0 mg/kg/injection, schedule: Q01DX009 (ip), vehicle: saline with Tween-80

Measured: T/C

CCc1nc(N)nc(N)c1-c1ccc(Cl)cc1
inactive: dose: 22.0 mg/kg/injection, schedule: Q01DX Z (ip), vehicle: carboxymethylcellulose (CMC) 120 % of control | dose: 25.0 mg/kg/injection, schedule: Q01DX015 (ip), vehicle: carboxymethylcellulose (CMC) 110 % of control | dose: 35.0 mg/kg/injection, schedule: Q01DX Z (ip), vehicle: carboxymethylcellulose (CMC) 118 % of control | dose: 50.0 mg/kg/injection, schedule: Q01DX015 (ip), vehicle: carboxymethylcellulose (CMC) 116 % of control | dose: 75.0 mg/kg/injection, schedule: Q01DX Z (ip), vehicle: carboxymethylcellulose (CMC) 91 % of control | dose: 200.0 mg/kg/injection, schedule: Q01DX015 (ip), vehicle: carboxymethylcellulose (CMC) 104 % of control

O=C(C(=O)c1cccc(CC(O)(C(F)(F)F)C(F)(F)F)n1)c1cccc(CC(O)(C(F)(F)F)C(F)(F)F)n1
inactive: [1] 91 % of control | [2] 95 % of control | [3] 96 % of control | [4] 97 % of control | dose: 400.0 mg/kg/injection, schedule: Q01DX009 (ip), vehicle: Klucel (hydroxypropylcellulose) (HPC) 93 % of control | dose: 400.0 mg/kg/injection, schedule: Q04DX003 (ip), vehicle: saline 103 % of control

O=C(c1ccccc1)c1cc(-c2cc(=O)cc(-c3cc(C(=O)c4ccccc4)c(O)cc3O)o2)c(O)cc1O
inactive: [5] 96 % of control | [6] 105 % of control | [7] 94 % of control

Cc1cnc(=S)[nH]c1N
inactive: [8] 99 % of control | [9] 95 % of control | [2] 101 % of control | [10] 99 % of control | [4] 105 % of control

Nc1nc(N)c(-c2ccccc2)c(C(=O)O)n1
inactive: dose: 50.0 mg/kg/injection, schedule: Q01DX001 (ip), vehicle: Klucel (hydroxypropylcellulose) (HPC) 101 % of control | dose: 50.0 mg/kg/injection, schedule: Q04DX003 (ip), vehicle: Klucel (hydroxypropylcellulose) (HPC) 94 % of control | [11] 95 % of control | [12] 105 % of control | [13] 95 % of control | [14] 105 % of control

COC1OC(COC(c2ccccc2)(c2ccccc2)c2ccccc2)C(OC)C(OC)C1OC (configuration not stated)
inactive: [15] 93 % of control | [16] 94 % of control | [17] 88 % of control

OC(Br)C1C(c2ccccc2)N1C1CCCCC1 (configuration not stated)
inactive: [12] 98 % of control | [14] 91 % of control | dose: 400.0 mg/kg/injection, schedule: Q04DX003 (ip), vehicle: Klucel (hydroxypropylcellulose) (HPC) 93 % of control

C/C=C/C=N/Nc1ccccc1
inactive: dose: 50.0 mg/kg/injection, schedule: Q04DX003 (ip), vehicle: other 87 % of control | dose: 100.0 mg/kg/injection, schedule: Q01DX001 (ip), vehicle: other 97 % of control | dose: 100.0 mg/kg/injection, schedule: Q04DX003 (ip), vehicle: other 92 % of control | dose: 200.0 mg/kg/injection, schedule: Q01DX001 (ip), vehicle: other 90 % of control | dose: 200.0 mg/kg/injection, schedule: Q04DX003 (ip), vehicle: other 93 % of control

Cc1ccc(S(=O)C(c2ccccc2)C(c2ccccc2)C(C)O)cc1 (configuration not stated)
inactive: [18] 89 % of control | [19] 89 % of control | [20] 91 % of control

CCSC1OC(C(COC(C)=O)OC(C)=O)C(OC(C)=O)C1NC(C)=O (configuration not stated)
inactive: dose: 50.0 mg/kg/injection, schedule: Q01DX001 (ip), vehicle: saline 103 % of control | [5] 110 % of control | [6] 97 % of control | [7] 100 % of control

CCOC(=O)CCN(C(=S)Nc1ccccc1)C1CCCCC1
inactive: dose: 100.0 mg/kg/injection, schedule: Q01DX Z (ip), vehicle: methylcellulose (MC) 94 % of control | dose: 200.0 mg/kg/injection, schedule: Q01DX Z (ip), vehicle: methylcellulose (MC) 92 % of control

CCOC(=O)C(COS(C)(=O)=O)NS(=O)(=O)c1ccc(C)cc1 (configuration not stated)
inactive: [11] 98 % of control | [13] 104 % of control | dose: 400.0 mg/kg/injection, schedule: Q01DX001 (ip), vehicle: Klucel (hydroxypropylcellulose) (HPC) 95 % of control

O=C(Nc1ccccc1F)OCCc1ccccn1
inactive: dose: 100.0 mg/kg/injection, schedule: Q04DX002 (ip), vehicle: Klucel (hydroxypropylcellulose) (HPC) 102 % of control | dose: 200.0 mg/kg/injection, schedule: Q04DX002 (ip), vehicle: Klucel (hydroxypropylcellulose) (HPC) 105 % of control | dose: 400.0 mg/kg/injection, schedule: Q04DX002 (ip), vehicle: Klucel (hydroxypropylcellulose) (HPC) 91 % of control

O=C(Cn1ccc(=O)[nH]c1=O)c1ccc(Cl)s1
inactive: [18] 100 % of control | [15] 96 % of control | [19] 97 % of control | [16] 98 % of control | [20] 91 % of control | [17] 104 % of control

CSc1cc(C)[o+]c(C)c1
inactive: dose: 12.5 mg/kg/injection, schedule: Q01DX009 (ip), vehicle: Klucel (hydroxypropylcellulose) (HPC) 108 % of control | dose: 25.0 mg/kg/injection, schedule: Q01DX009 (ip), vehicle: Klucel (hydroxypropylcellulose) (HPC) 112 % of control | dose: 50.0 mg/kg/injection, schedule: Q01DX009 (ip), vehicle: Klucel (hydroxypropylcellulose) (HPC) 105 % of control | dose: 75.0 mg/kg/injection, schedule: Q01DX009 (ip), vehicle: acetone 110 % of control | [5] 97 % of control | [1] 120 % of control | dose: 115.0 mg/kg/injection, schedule: Q01DX009 (ip), vehicle: acetone 103 % of control | dose: 170.0 mg/kg/injection, schedule: Q01DX009 (ip), vehicle: acetone 95 % of control | [6] 103 % of control | [3] 106 % of control | dose: 255.0 mg/kg/injection, schedule: Q01DX009 (ip), vehicle: acetone 110 % of control

O=CNc1ccc2c(c1)Cc1cc(Cl)ccc1-2
inactive: dose: 30.0 mg/kg/injection, schedule: Q01DX015 (ip), vehicle: carboxymethylcellulose (CMC) 97 % of control | dose: 60.0 mg/kg/injection, schedule: Q01DX015 (ip), vehicle: carboxymethylcellulose (CMC) 106 % of control | dose: 120.0 mg/kg/injection, schedule: Q01DX015 (ip), vehicle: carboxymethylcellulose (CMC) 97 % of control

COc1ccc(/C=C/C(C)=O)cc1OC
inactive: dose: 6.25 mg/kg/injection, schedule: Q01DX009 (ip), vehicle: saline 91 % of control | dose: 12.5 mg/kg/injection, schedule: Q01DX009 (ip), vehicle: saline 100 % of control | dose: 25.0 mg/kg/injection, schedule: Q01DX009 (ip), vehicle: saline 91 % of control | [8] 87 % of control | [9] 88 % of control | [10] 88 % of control

Nc1nc(N)c2cc(NCc3ccccc3Cl)ccc2n1
inactive: dose: 3.12 mg/kg/injection, schedule: Q01DX009 (ip), vehicle: saline with Tween-80 111 % of control | dose: 6.25 mg/kg/injection, schedule: Q01DX009 (ip), vehicle: saline with Tween-80 103 % of control | dose: 6.25 mg/kg/injection, schedule: Q04DX003 (ip), vehicle: saline 94 % of control | dose: 12.5 mg/kg/injection, schedule: Q01DX009 (ip), vehicle: saline with Tween-80 95 % of control | dose: 12.5 mg/kg/injection, schedule: Q04DX003 (ip), vehicle: saline 102 % of control | dose: 25.0 mg/kg/injection, schedule: Q01DX001 (ip), vehicle: acetone 100 % of control

O=C(O)c1c(CN2CCOCC2)c(O)c(O)c(O)c1CN1CCOCC1
inactive: [5] 103 % of control | [6] 107 % of control | [7] 103 % of control
